Experimental data as given in ChEMBL document CHEMBL5723035, “Affinity Biochemical Literature for EUbOPEN Chemogenomic Library” (2024).
One block for each compound: values may come before it. Non-standard residues stand in square brackets, D forms with d. Residues, ends and D or L forms follow the SMILES beside them. *: point of attachment. Tyr(3-Cl) = N[C@@H](Cc1ccc(O)c(Cl)c1)C(=O)O; Benzoyl(3,5-Cl2) = O=C(c1cc(Cl)cc(Cl)c1)*; Lys(Et2) = CCN(CC)CCCC[C@H](N)C(=O)O; Gly(cPent) = N[C@H](C(=O)O)C1CCCC1; Cbz = O=C(OCc1ccccc1)*; NH(propargyl) = C#CCN*; CH2F = FC*

Columns and labels:
[1] = biological target: Histone-lysine N-methyltransferase 2A (Homo sapiens, UniProt Q03164); experiment: Affinity Biochemical interaction: (H3K4 HMT inhibition assay to measure the effect on MLL1-mediated HMT activity) EUB0002769a MLL; assay type: functional; set-up: mode of action Inhibitor, recommended concentration 1 uM
[2] = biological target: WD repeat-containing protein 5 (Homo sapiens, UniProt P61964); experiment: Affinity Biochemical interaction: (Time-resolved fluorescence energy transfer (TR-FRET) assay to determine the competitive binding affinity (Ki) against the MLL1-derived FITC-peptide probe) EUB0002769a WDR5; assay type: functional; set-up: mode of action Inhibitor, recommended concentration 1 uM
[3] = biological target: Ubiquitin carboxyl-terminal hydrolase 30 (Homo sapiens, UniProt Q70CQ3)
[4] = biological target: Caspase-2 (Homo sapiens, UniProt P42575); experiment: Affinity Biochemical interaction: (enzymatic assay (cleavage of fluorogenic substrate)) EUB0002782a CASP2; assay type: functional; set-up: mode of action Inhibitor, recommended concentration 1 uM
[5] = biological target: Ubiquitin carboxyl-terminal hydrolase 1 (Homo sapiens, UniProt O94782); experiment: Affinity Biochemical interaction: (Ubiquitin-rhodamine 110 Assay for USP1 activity) EUB0002793a USP1; assay type: functional; set-up: mode of action Inhibitor, recommended concentration 1 uM
[6] = biological target: T1, Calpain-1 catalytic subunit (Homo sapiens, UniProt P07384); experiment: Affinity Biochemical interaction: (inhibition of enzyme activity using a fluorogenic substrate) EUB0002786aAD CAPN1; assay type: functional; set-up: mode of action Inhibitor, recommended concentration 1 uM
[7] = biological target: T1, Calpain-1 catalytic subunit; experiment: Affinity Biochemical interaction: (inhibition of casein degradation, monitored by measuring generation of trichloroacetic acid-soluble peptides) EUB0002786aAD CAPN1; assay type: functional; set-up: mode of action Inhibitor, recommended concentration 1 uM
[8] = biological target: Calpain-2 catalytic subunit (Homo sapiens, UniProt P17655); experiment: Affinity Biochemical interaction: (inhibition of casein degradation, monitored by measuring generation of trichloroacetic acid-soluble peptides) EUB0002786aAD CAPN2; assay type: functional; set-up: mode of action Inhibitor, recommended concentration 1 uM
[9] = biological target: Dipeptidyl peptidase 1 (Homo sapiens, UniProt P53634); experiment: Affinity Biochemical interaction: (No data available) EUB0002789aCl CTSC; set-up: mode of action Inhibitor, recommended concentration 1 uM
[10] = biological target: Poly [ADP-ribose] polymerase 1 (Homo sapiens, UniProt P09874); experiment: Affinity Biochemical interaction: (inhibition of enzyme activity) EUB0002763a PARP1; assay type: functional; set-up: mode of action Inhibitor, recommended concentration 1 uM
[11] = biological target: Poly [ADP-ribose] polymerase 2 (Homo sapiens, UniProt Q9UGN5); experiment: Affinity Biochemical interaction: (inhibition of enzyme activity) EUB0002763a PARP2; assay type: functional; set-up: mode of action Inhibitor, recommended concentration 1 uM
[12] = biological target: Cathepsin S (Homo sapiens, UniProt P25774); experiment: Affinity Biochemical interaction: (inhibition of enzyme activity in cleaving fluorogenic substrate) EUB0002791a CTSS; assay type: functional; set-up: mode of action Inhibitor, recommended concentration 1 uM
[13] = biological target: Ubiquitin carboxyl-terminal hydrolase 7 (Homo sapiens, UniProt Q93009); experiment: Affinity Biochemical interaction: (inhibition of enzyme activity in cleaving fluorogenic ubiquitin-rhodamine substrate) EUB0002755a USP7; assay type: functional; set-up: mode of action Inhibitor, recommended concentration 1 uM
[14] = biological target: Menin (Homo sapiens, UniProt O00255); experiment: Affinity Biochemical interaction: (Enzymatic assay) EUB0002767a MEN1; assay type: functional; set-up: mode of action Inhibitor, recommended concentration 1 uM
[15] = biological target: cGMP-specific 3',5'-cyclic phosphodiesterase (Homo sapiens, UniProt O76074); experiment: Affinity Biochemical interaction: (inhibition of enzyme activity in cleaving radiolabelled substrate [3H]cGMP) EUB0002742aCl PDE5A; assay type: functional; set-up: mode of action Inhibitor, recommended concentration 1 uM
[16] = biological target: T2, Chromobox protein homolog 2 (Homo sapiens, UniProt Q14781); experiment: Affinity Biochemical interaction: (thermal shift assay (non-derivatised)) EUB0002728a CBX2; set-up: mode of action Inhibitor, recommended concentration 1 uM
[17] = biological target: T2, Chromobox protein homolog 2; experiment: Affinity Biochemical interaction: (Fluorescence polarisation (fluorescein conjugated)) EUB0002728a CBX2; assay type: functional; set-up: mode of action Inhibitor, recommended concentration 1 uM

T1 sequence (P07384 whole entry): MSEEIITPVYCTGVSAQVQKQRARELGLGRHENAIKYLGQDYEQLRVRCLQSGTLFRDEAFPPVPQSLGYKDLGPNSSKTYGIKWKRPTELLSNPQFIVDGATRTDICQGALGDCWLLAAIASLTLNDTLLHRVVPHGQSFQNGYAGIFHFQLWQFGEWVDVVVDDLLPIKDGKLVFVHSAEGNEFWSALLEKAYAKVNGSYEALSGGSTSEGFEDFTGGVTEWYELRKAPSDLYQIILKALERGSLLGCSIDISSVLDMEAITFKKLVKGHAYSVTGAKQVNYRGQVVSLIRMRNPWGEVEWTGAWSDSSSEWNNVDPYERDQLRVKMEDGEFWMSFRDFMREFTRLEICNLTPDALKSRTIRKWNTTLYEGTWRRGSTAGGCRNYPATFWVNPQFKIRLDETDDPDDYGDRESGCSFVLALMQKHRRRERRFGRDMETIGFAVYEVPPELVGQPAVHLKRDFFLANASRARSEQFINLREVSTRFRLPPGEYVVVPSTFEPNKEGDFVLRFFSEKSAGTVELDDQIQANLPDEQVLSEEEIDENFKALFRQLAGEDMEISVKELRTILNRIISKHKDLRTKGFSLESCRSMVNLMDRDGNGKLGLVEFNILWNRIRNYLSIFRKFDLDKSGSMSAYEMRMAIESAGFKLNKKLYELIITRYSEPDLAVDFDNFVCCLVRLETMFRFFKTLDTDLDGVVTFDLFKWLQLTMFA
T2 sequence (Q14781 whole entry): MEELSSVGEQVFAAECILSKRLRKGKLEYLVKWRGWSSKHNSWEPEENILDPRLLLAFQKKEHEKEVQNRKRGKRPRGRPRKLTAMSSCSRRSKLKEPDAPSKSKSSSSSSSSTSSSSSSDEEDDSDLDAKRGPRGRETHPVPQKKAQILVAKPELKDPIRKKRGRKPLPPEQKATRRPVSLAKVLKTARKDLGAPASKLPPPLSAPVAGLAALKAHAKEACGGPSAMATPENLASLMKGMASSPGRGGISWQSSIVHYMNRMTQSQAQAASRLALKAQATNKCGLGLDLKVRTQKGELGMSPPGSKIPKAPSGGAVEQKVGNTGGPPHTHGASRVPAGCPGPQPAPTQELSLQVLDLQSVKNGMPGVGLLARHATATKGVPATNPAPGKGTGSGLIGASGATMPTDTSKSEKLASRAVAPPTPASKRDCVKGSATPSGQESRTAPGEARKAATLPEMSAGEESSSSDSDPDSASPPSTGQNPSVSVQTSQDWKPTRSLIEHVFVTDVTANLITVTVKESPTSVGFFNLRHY
Cathepsin S, sequence (P25774 whole entry): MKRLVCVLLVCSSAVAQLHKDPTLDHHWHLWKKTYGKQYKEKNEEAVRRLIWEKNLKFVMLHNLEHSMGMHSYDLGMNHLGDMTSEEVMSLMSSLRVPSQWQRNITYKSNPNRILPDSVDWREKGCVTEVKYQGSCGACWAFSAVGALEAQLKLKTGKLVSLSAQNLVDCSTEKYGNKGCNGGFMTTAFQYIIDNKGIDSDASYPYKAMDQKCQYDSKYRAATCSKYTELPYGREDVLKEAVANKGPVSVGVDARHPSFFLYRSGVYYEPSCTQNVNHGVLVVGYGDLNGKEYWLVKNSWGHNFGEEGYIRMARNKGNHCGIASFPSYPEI
Dipeptidyl peptidase 1, sequence (P53634 25-134 limits assumed): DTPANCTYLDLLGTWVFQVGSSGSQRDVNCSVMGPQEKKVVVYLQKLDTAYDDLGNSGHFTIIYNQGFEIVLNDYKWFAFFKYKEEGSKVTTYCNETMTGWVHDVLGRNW
Dipeptidyl peptidase 1, sequence (P53634 231-394 limits assumed): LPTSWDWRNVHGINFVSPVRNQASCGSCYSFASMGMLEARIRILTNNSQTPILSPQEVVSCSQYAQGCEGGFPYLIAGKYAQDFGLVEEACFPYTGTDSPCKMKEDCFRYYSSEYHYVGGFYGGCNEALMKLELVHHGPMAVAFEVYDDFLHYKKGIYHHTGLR
Dipeptidyl peptidase 1, sequence (P53634 395-463 limits assumed): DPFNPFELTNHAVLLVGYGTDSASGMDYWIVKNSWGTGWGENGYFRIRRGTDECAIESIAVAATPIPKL
Ubiquitin carboxyl-terminal hydrolase 1, sequence (O94782 whole entry): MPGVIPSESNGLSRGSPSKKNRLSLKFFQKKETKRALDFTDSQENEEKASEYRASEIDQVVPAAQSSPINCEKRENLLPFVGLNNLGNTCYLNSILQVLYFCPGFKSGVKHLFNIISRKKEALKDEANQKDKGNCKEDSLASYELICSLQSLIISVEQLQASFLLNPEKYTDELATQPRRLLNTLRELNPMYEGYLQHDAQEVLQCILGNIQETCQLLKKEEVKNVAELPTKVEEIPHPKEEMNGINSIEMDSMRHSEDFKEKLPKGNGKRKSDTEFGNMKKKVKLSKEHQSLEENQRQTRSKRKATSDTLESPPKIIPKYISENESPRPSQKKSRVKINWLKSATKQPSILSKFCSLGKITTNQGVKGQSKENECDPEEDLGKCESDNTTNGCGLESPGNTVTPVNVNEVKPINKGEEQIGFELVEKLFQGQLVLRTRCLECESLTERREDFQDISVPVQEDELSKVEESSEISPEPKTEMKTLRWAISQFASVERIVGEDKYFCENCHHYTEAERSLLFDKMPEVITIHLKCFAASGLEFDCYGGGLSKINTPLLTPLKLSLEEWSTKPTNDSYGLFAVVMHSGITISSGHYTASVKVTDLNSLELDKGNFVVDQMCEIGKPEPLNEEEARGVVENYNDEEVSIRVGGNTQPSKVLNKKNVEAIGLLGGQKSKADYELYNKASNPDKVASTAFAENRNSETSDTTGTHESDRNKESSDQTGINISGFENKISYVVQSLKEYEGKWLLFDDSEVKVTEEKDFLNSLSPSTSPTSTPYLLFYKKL
Menin, sequence (O00255 whole entry): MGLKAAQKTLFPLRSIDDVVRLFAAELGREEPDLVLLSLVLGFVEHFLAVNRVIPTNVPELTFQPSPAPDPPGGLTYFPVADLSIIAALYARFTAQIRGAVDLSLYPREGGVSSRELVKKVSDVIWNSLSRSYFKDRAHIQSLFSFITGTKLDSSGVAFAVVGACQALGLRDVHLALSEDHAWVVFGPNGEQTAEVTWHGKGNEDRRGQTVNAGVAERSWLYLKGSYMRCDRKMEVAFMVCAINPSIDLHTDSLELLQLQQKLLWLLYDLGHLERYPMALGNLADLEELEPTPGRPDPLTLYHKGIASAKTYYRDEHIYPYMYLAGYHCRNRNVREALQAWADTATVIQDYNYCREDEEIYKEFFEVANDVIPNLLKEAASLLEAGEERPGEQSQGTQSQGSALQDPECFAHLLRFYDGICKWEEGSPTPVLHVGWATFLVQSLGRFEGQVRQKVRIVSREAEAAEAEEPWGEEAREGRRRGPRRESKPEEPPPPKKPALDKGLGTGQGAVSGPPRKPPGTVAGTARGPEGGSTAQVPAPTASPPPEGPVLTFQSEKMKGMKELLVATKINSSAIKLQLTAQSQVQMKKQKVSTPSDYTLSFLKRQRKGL
Ubiquitin carboxyl-terminal hydrolase 7, sequence (Q93009 whole entry): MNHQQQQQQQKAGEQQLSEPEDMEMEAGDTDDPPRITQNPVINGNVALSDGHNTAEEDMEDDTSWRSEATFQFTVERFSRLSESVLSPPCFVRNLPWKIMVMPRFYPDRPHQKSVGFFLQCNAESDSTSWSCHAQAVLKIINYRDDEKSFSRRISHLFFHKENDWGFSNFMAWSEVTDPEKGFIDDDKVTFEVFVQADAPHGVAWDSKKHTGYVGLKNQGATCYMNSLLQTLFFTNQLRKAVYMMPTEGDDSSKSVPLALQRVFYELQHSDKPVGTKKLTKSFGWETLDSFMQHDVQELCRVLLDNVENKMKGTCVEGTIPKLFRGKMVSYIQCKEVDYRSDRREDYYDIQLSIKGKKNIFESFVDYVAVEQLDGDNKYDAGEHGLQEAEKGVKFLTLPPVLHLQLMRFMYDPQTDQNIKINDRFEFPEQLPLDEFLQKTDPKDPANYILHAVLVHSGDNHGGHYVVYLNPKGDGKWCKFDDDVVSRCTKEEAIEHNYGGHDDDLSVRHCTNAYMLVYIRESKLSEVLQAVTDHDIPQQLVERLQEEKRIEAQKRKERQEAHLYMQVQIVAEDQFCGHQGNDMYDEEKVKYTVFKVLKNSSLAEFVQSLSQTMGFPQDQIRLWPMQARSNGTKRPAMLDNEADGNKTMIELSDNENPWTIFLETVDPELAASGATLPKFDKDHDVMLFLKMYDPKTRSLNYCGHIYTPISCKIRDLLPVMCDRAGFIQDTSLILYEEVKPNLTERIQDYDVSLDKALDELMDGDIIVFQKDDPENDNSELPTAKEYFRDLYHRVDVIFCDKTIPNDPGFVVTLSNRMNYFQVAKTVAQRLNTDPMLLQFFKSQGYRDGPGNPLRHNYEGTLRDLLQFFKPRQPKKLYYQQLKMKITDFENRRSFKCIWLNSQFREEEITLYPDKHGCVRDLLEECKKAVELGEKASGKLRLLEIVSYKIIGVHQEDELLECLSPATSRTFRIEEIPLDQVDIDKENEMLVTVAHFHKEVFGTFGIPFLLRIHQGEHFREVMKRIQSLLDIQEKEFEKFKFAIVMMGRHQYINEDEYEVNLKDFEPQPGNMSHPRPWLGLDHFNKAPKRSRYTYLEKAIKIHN
Ubiquitin carboxyl-terminal hydrolase 30, sequence (Q70CQ3 whole entry): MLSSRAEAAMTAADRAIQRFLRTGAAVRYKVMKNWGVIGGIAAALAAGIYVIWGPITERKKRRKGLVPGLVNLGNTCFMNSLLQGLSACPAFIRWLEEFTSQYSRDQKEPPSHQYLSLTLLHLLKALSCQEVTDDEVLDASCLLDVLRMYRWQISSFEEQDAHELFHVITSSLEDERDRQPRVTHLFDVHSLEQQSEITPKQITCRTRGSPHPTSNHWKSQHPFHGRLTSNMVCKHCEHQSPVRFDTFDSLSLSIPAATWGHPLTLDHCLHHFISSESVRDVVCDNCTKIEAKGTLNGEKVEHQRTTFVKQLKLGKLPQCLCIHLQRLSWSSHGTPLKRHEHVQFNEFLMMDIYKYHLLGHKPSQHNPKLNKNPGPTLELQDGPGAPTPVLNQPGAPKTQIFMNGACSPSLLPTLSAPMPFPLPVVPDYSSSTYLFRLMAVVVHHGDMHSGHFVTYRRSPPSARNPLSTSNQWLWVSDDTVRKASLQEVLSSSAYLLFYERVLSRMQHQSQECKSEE

IC50 [1]: 2.2 nM | Kd [2]: < 0.02 nM
SMILES: COc1cc(O)cc(CN2CCc3c(cc(Cn4ccn(C)c4=N)cc3-c3ccc(F)cc3C)C2=O)c1

SMILES: COc1ccc(-c2csc(N(C)C(=O)[C@@H]3CCCN3C#N)n2)nc1C#N
IC50 [3]: < 100 nM

IC50 [4]: ~80 nM
SMILES: COC(=O)CC(NC(=O)C(C)NC(=O)C(NC(=O)C(CC(=O)OC)NC(=O)C(NC(=O)OCc1ccccc1)C(C)C)C(C)C)C(=O)CF (configuration not stated) (Cbz-VD(OMe)VAD(OMe)-CH2F; configuration not given here)

IC50 [5]: < 50 nM
SMILES: CC(C)c1c(F)cccc1-c1ncc2[nH]c(=O)n(Cc3ccc(-c4nc(C(F)(F)F)cn4C)cc3)c2n1

Ki [6]: 0.2 nM | IC50 [7]: ~60 nM | IC50 [8]: ~30 nM
SMILES: CC[C@H](C)[C@H](NC(=O)[C@H](Cc1ccc(O)cc1)NC(=O)[C@@H](NC(=O)[C@H](CO)NC(=O)[C@H](CO)NC(=O)[C@H](CCSC)NC(=O)[C@@H]1CCCN1C(=O)[C@H](CC(=O)O)NC(C)=O)[C@@H](C)O)C(=O)N[C@@H](CCC(=O)O)C(=O)N[C@@H](CCC(=O)O)C(=O)N[C@@H](CC(C)C)C(=O)NCC(=O)N[C@@H](CCCCN)C(=O)N[C@@H](CCCNC(=N)N)C(=O)N[C@@H](CCC(=O)O)C(=O)N[C@H](C(=O)N[C@H](C(=O)N[C@H](C(=O)N1CCC[C@H]1C(=O)N1CCC[C@H]1C(=O)N[C@@H](CCCCN)C(=O)N[C@@H](Cc1ccc(O)cc1)C(=O)N[C@@H](CCCNC(=N)N)C(=O)N[C@@H](CCC(=O)O)C(=O)N[C@@H](CC(C)C)C(=O)N[C@@H](CC(C)C)C(=O)N[C@@H](C)C(N)=O)[C@@H](C)CC)[C@@H](C)O)C(C)C (Ac-DPMSSTYIEELGKREVTIPPKYRELLA-NH2)

IC50 [9]: < 0.43 nM
SMILES: CC[C@@H](/C=C/C(=O)N1CCc2ccccc21)NC(=O)C1(N)CCOCC1

IC50 [10]: 1.4 nM | IC50 [11]: 1 nM
SMILES: O=C(c1cc(Cc2n[nH]c(=O)c3ccccc23)ccc1F)N1CC(CNC2CC2)C1

Ki [12]: 2.1 nM
SMILES: CC(F)(F)C(=O)N[C@@H](CC1(F)CCCC1)C(=O)NC1(C(=O)C(N)=O)CCC1

IC50 [13]: 13.4 nM
SMILES: Cc1cc(Cl)cc(-c2c3sc(CN4C(=O)C5C(C4=O)C5(C)C)cc3nn2C)c1OC1CCNCC1 (configuration not stated)

Ki [14]: 0.104 nM
SMILES: CC(C)N(C(=O)c1cc(F)ccc1Oc1cncnc1N1CC2(CCN(C[C@H]3CC[C@H](NS(C)(=O)=O)CC3)CC2)C1)C(C)C

IC50 [15]: 0.074 nM
SMILES: CCn1c(=S)[nH]c2cc3c(NCc4ccccc4N4CCC(CO)CC4)ncnc3cc21

Kd [16]: 110 nM | Kd [17]: 80 nM
SMILES: C#CCNC(=O)[C@H](CO)NC(=O)[C@H](CCCCN(CC)CC)NC(=O)[C@@H](NC(=O)[C@@H](NC(=O)[C@H](Cc1ccc(O)c(Cl)c1)NC(=O)c1cc(Cl)cc(Cl)c1)C1CCCC1)[C@@H](C)CC ({Benzoyl(3,5-Cl2)}-[Tyr(3-Cl)][Gly(cPent)]I[Lys(Et2)]S-{NH(propargyl)})
